Experimental data published in patent publication US7071221B2, “Heterocyclic oxime compounds” (Les Laboratoires Servier, priority 2004, dated 2006).

Tested on: ob/ob mouse
Assay: Antidiabetic and hypolipidaemic effect in the ob/ob mouse
Format: in vivo
Conditions: female ob/ob mouse; for decrease of glycaemia compared to the control group: twice per day for four days (10 mg/kg i.p. or 30 mg/kg per os; route not given), glycaemia 24 hours after final administration
Excerpt: Mutations in laboratory animals and also different sensitivities to dietary regimens have allowed the development of animal models having non-insulin dependent diabetes and hyperlipidaemia associated with obesity and with resistance to insulin.
Genetic mice models (ob/ob) (Diabetes, 1982, 31 (1), 1–6) and Zucker (fa/fa) rats have been developed by various laboratories in order to understand the physiopathology of those diseases and test the efficacy of new antidiabetic compounds (Diabetes, 1983, 32, 830–838).
Antidiabetic and Hypolipidaemic Effect in the ob/ob Mouse
The 10-week-old female ob/ob mouse (Harlan) is used for the in vivo tests. The animals are kept in a light-darkness cycle of 12 hours at 25° C. The mouse has a basal hyperglycaemia of 2 g/l. The animals are randomly selected in terms of their glycaemia to form groups of six. The compounds tested by the intraperitoneal route are dissolved in a mixture of dimethyl sulphoxide (10%) and Solutol (15%) to be administered at 10 mg/kg in a volume of 2.5 ml/kg twice per day for four days. By the per os route, the compounds are tested at 30 mg/kg administered in a volume of 2.5 ml/kg of 1% HEC twice per day for four days. The control groups receive the solvents under the same conditions as the treated groups. The activity of the products is evaluated by measuring glycaemia 24 hours after the final administration and by measuring body weight daily.

| Structure (SMILES) | decrease of the gain of weight compared to the control group (twice per day for four days) [%] | decrease of glycaemia compared to the control group [%] | change in body weight (four days treatment, body weight measured daily) | increase of the body weight compared to the increase of body weight of the control group (twice per day for four days) [%] |
| --- | --- | --- | --- | --- |
| CON=C(c1ccccc1)c1ccc2c(c1)sc(=O)n2CCOc1ccc(CC(OCC(F)(F)F)C(=O)OC)cc1 (centres unmarked) [Example 3, Methyl 3-{4-[2-(6-[(methoxyimino)(phenyl)methyl]-2-oxo-1,3-benzothiazol-3(2H)-yl)ethoxy]phenyl}-2-(2,2,2-trifluoroethoxy)-propanoate] | 80 | 51 | – | – |
| CN(CCOc1ccc(CC2SC(=O)NC2=O)cc1)c1ccccn1 (centres unmarked) [Rosiglitazone, rosiglitazone] | – | 61 | significant increase | 33 |
